Read-outs that look alike come from different tables or passages of the source.
Key:
in vitro [1] = type: cell-based; settings: human
Method in brief: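 Uninfected MT4 cells cultured with compound 4–5 days at 37 °C, equilibrated to 25 °C, and viability read by CellTiter-Glo luminescence. Untreated and 2 μM puromycin-treated cells defined 100% and 0% viability; CC50, the concentration reducing viability by 50%, from non-linear regression.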

[2] = system: Caco-2 cells (clone C2BBe1); settings: human, Caco-2
SARS-CoV2-NLuc = assay: microbe, parasite or virus in culture; type: cell-based, SARS Coronavirus 2; settings: Severe acute respiratory syndrome coronavirus 2, 48 h, read-out: SARS-CoV2 EC50 (nM)
in vitro [3] = type: in vitro ADME; settings: human, s9, pH 7.4
Method in brief: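 Test compounds at 2 μM final were incubated in a GI S9 reaction mixture, reactions being started by substrate addition. Diluted supernatants were quantified by LC/MS on a Q-Exactive using analyte/internal standard peak area ratios, with 0.1% formic acid water/acetonitrile gradient elution and 5 ppm mass tolerance.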

RSV-Luc5 = assay: microbe, parasite or virus in culture; type: cell-based; settings: human respiratory syncytial virus, NHBE, 72 h, read-out: RSV NHBE EC50 (nM)

With `CC(C)OC(=O)OC[C@H]1O[C@@](C#N)(c2ccc3c(N)ncnn23)[C@@H]2OC(=O)CCCCCC(=O)O[C@@H]21` [Compound C6, ((9aR,10R,12R,12aR)-12-(4-aminopyrrolo[2,1-f][1,2,4]triazin-7-yl)-12-cyano-2,8-dioxodecahydro-2H-furo[3,4-b][1,4]dioxacycloundecin-10-yl)methyl isopropyl carbonate] the “Human Plasma T1/2” value (2 μM) was 180 s, the CC50 (in vitro [1]) was greater than 50 µM and the “Caco2 A to B” value [2] was 11.12. The “Caco2 B to A” value [2] was 11.68, the EC50 (SARS-CoV2-NLuc) was greater than 50000 nM and the half-life at 2 μM (in vitro [3]) was 38.2 s. It also gave an EC50 (RSV-Luc5) of 1460 nM.
In the case of `CC(C)OC(=O)OC[C@H]1O[C@@](C#N)(c2ccc3c(N)ncnn23)[C@@H]2OC(=O)CCCCC(=O)O[C@@H]21` [Compound C7, ((8aR,9R,11R,11aR)-11-(4-aminopyrrolo[2,1-f][1,2,4]triazin-7-yl)-11-cyano-2,7-dioxodecahydrofuro[3,4-b][1,4]dioxecin-9-yl)methyl isopropyl carbonate], the “Human Plasma T1/2” value (2 μM) is reported as 180 s, the CC50 (in vitro [1]) is reported as greater than 50 µM and the “Caco2 A to B” value [2] is reported as 4.31. For the same molecule, the “Caco2 B to A” value [2] was 9.89, the EC50 (SARS-CoV2-NLuc) was greater than 50000 nM and the half-life at 2 μM (in vitro [3]) was 35.8 s. For the same molecule, the EC50 (RSV-Luc5) was 2730 nM.
In the case of `CC(C)OC(=O)OC[C@H]1O[C@@](C#N)(c2ccc3c(N)ncnn23)[C@@H]2OC(=O)CCOCCC(=O)O[C@@H]21` [Compound C8, ((9aR,10R,12R,12aR)-12-(4-aminopyrrolo[2,1-f][1,2,4]triazin-7-yl)-12-cyano-2,8-dioxooctahydro-2H,6H-furo[3,4-b][1,4,8]trioxacycloundecin-10-yl)methyl isopropyl carbonate], the “Human Plasma T1/2” value (2 μM) is reported as 180 s, the CC50 (in vitro [1]) is reported as greater than 50 µM and the “Caco2 A to B” value [2] is reported as 1.56. For the same molecule, the “Caco2 B to A” value [2] was 10.63, the EC50 (SARS-CoV2-NLuc) was greater than 50000 nM and the half-life at 2 μM (in vitro [3]) was 41.2 s. For the same molecule, the EC50 (RSV-Luc5) was 3350 nM.
In the case of `CC(C)OC(=O)OC[C@H]1O[C@@](C#N)(c2ccc3c(N)ncnn23)[C@@H]2OC(=O)CCC=CCCC(=O)O[C@@H]21` [Compound C9, ((10aR,11R,13R,13aR)-13-(4-aminopyrrolo[2,1-f][1,2,4]triazin-7-yl)-13-cyano-2,9-dioxo-2,3,4,7,8,9,10a,11,13,13a-decahydrofuro[3,4-b][1,4]dioxacyclododecin-11-yl)methyl isopropyl carbonate], the “Human Plasma T1/2” value (2 μM) is reported as 180 s, the CC50 (in vitro [1]) is reported as greater than 50 µM and the “Caco2 A to B” value [2] is reported as 18.29. For the same molecule, the “Caco2 B to A” value [2] was 17.94, the EC50 (SARS-CoV2-NLuc) was 27500 nM and the half-life at 2 μM (in vitro [3]) was 39.3 s. The EC50 (RSV-Luc5) was 3050 nM.
With `CCOC(=O)OC[C@H]1O[C@@](C#N)(c2ccc3c(N)ncnn23)[C@@H]2OC(=O)CCCC(=O)O[C@@H]21` [Compound C12, ((7aR,8R,10R,10aR)-10-(4-aminopyrrolo[2,1-f][1,2,4]triazin-7-yl)-10-cyano-2,6-dioxooctahydro-2H-furo[3,4-b][1,4]dioxonin-8-yl)methyl ethyl carbonate] the “Human Plasma T1/2” value was 180 s, the CC50 (in vitro [1]) was greater than 50 µM and the “Caco2 A to B” value [2] was 1.94. For the same molecule, the “Caco2 B to A” value [2] was 5.31, the EC50 (SARS-CoV2-NLuc) was 5880 nM and the half-life at 2 μM (in vitro [3]) was 37.3 s. It also gave an EC50 (RSV-Luc5) of 7940 nM.
In the case of `COC(=O)OC[C@H]1O[C@@](C#N)(c2ccc3c(N)ncnn23)[C@@H]2OC(=O)CCCC(=O)O[C@@H]21` [Compound C13, ((7aR,8R,10R,10aR)-10-(4-aminopyrrolo[2,1-f][1,2,4]triazin-7-yl)-10-cyano-2,6-dioxooctahydro-2H-furo[3,4-b][1,4]dioxonin-8-yl)methyl methyl carbonate], the “Human Plasma T1/2” value (2 μM) is reported as 180 s, the CC50 (in vitro [1]) is reported as greater than 50 µM and the “Caco2 A to B” value [2] is reported as 2.1. The “Caco2 B to A” value [2] was 5.18, the EC50 (SARS-CoV2-NLuc) was 4100 nM and the half-life at 2 μM (in vitro [3]) was 36.8 s. For the same molecule, the EC50 (RSV-Luc5) was 30000 nM.
For `N#C[C@@]1(c2ccc3c(N)ncnn23)O[C@H](COC(=O)OC2CCCC2)[C@H]2OC(=O)CCCC(=O)O[C@H]21` [Compound C20, ((7aR,8R,10R,10aR)-10-(4-aminopyrrolo[2,1-f][1,2,4]triazin-7-yl)-10-cyano-2,6-dioxooctahydro-2H-furo[3,4-b][1,4]dioxonin-8-yl)methyl cyclopentyl carbonate], the “Human Plasma T1/2” value (2 μM) was 180 s, the CC50 (in vitro [1]) was greater than 50 µM and the EC50 (SARS-CoV2-NLuc) was 11700 nM. It also gave an EC50 (RSV-Luc5) of 27900 nM.
In the case of `CCC(CC)COC(=O)OC[C@H]1O[C@@](C#N)(c2ccc3c(N)ncnn23)[C@@H]2OC(=O)CCCC(=O)O[C@@H]21` [Compound C21, ((7aR,8R,10R,10aR)-10-(4-aminopyrrolo[2,1-f][1,2,4]triazin-7-yl)-10-cyano-2,6-dioxooctahydro-2H-furo[3,4-b][1,4]dioxonin-8-yl)methyl (2-ethylbutyl) carbonate], the “Human Plasma T1/2” value (2 μM) is reported as 180 s, the CC50 (in vitro [1]) is reported as greater than 50 µM and the EC50 (SARS-CoV2-NLuc) is reported as 1440 nM. The half-life at 2 μM (in vitro [3]) was 38.2 s and the EC50 (RSV-Luc5) was 6600 nM.
For `COC(C)(C)COC(=O)OC[C@H]1O[C@@](C#N)(c2ccc3c(N)ncnn23)[C@@H]2OC(=O)CCCC(=O)O[C@@H]21` [Compound C22, ((7aR,8R,10R,10aR)-10-(4-aminopyrrolo[2,1-f][1,2,4]triazin-7-yl)-10-cyano-2,6-dioxooctahydro-2H-furo[3,4-b][1,4]dioxonin-8-yl)methyl (2-methoxy-2-methylpropyl) carbonate], the “Human Plasma T1/2” value (2 μM) was 180 s, the CC50 (in vitro [1]) was greater than 50 µM and the “Caco2 A to B” value [2] was 0.88. For the same molecule, the “Caco2 B to A” value [2] was 3.46, the EC50 (SARS-CoV2-NLuc) was 5110 nM and the half-life at 2 μM (in vitro [3]) was 34.1 s. For the same molecule, the EC50 (RSV-Luc5) was 4850 nM.
For `N#C[C@@]1(c2ccc3c(N)ncnn23)O[C@H](COC(=O)OC2CCOC2)[C@H]2OC(=O)CCCC(=O)O[C@H]21` (stereo partly drawn) [Compound C23, ((7aR,8R,10R,10aR)-10-(4-aminopyrrolo[2,1-f][1,2,4]triazin-7-yl)-10-cyano-2,6-dioxooctahydro-2H-furo[3,4-b][1,4]dioxonin-8-yl)methyl (tetrahydrofuran-3-yl) carbonate], the “Human Plasma T1/2” value (2 μM) was 180 s, the CC50 (in vitro [1]) was greater than 50 µM and the “Caco2 A to B” value [2] was 0.66. For the same molecule, the “Caco2 B to A” value [2] was 4.38, the EC50 (SARS-CoV2-NLuc) was 18400 nM and the half-life at 2 μM (in vitro [3]) was 34.1 s. It also gave an EC50 (RSV-Luc5) of 19900 nM.
With `N#CC1(COC(=O)OC[C@H]2O[C@@](C#N)(c3ccc4c(N)ncnn34)[C@@H]3OC(=O)CCCC(=O)O[C@@H]32)CC1` [Compound C24, ((7aR,8R,10R,10aR)-10-(4-aminopyrrolo[2,1-f][1,2,4]triazin-7-yl)-10-cyano-2,6-dioxooctahydro-2H-furo[3,4-b][1,4]dioxonin-8-yl)methyl ((1-cyanocyclopropyl)methyl) carbonate] the “Human Plasma T1/2” value (2 μM) was 180 s, the CC50 (in vitro [1]) was greater than 50 µM and the EC50 (SARS-CoV2-NLuc) was 11500 nM. The half-life at 2 μM (in vitro [3]) was 33.9 s and the EC50 (RSV-Luc5) was 7760 nM.
In the case of `N#C[C@@]1(c2ccc3c(N)ncnn23)O[C@H](COC(=O)OC(CF)CF)[C@H]2OC(=O)CCCC(=O)O[C@H]21` [Compound C27, ((7aR,8R,10R,10aR)-10-(4-aminopyrrolo[2,1-f][1,2,4]triazin-7-yl)-10-cyano-2,6-dioxooctahydro-2H-furo[3,4-b][1,4]dioxonin-8-yl)methyl (1,3-difluoropropan-2-yl) carbonate], the “Human Plasma T1/2” value (2 μM) is reported as 180 s, the CC50 (in vitro [1]) is reported as greater than 50 µM and the EC50 (SARS-CoV2-NLuc) is reported as 7400 nM. The half-life at 2 μM (in vitro [3]) was 37 s and the EC50 (RSV-Luc5) was 9810 nM.
For `CC(C)C(=O)OC[C@H]1O[C@@](C#N)(c2ccc3c(N)ncnn23)[C@@H]2OC(=O)CCCC(=O)O[C@@H]21` [Compound C54, ((7aR,8R,10R,10aR)-10-(4-aminopyrrolo[2,1-f][1,2,4]triazin-7-yl)-10-cyano-2,6-dioxooctahydro-2H-furo[3,4-b][1,4]dioxonin-8-yl)methyl isobutyrate], the “Human Plasma T1/2” value (2 μM) was 180 s, the CC50 (in vitro [1]) was greater than 50 µM and the “Caco2 A to B” value [2] was 1. For the same molecule, the “Caco2 B to A” value [2] was 2.98, the EC50 (SARS-CoV2-NLuc) was 7880 nM and the half-life at 2 μM (in vitro [3]) was 35.3 s. It also gave an EC50 (RSV-Luc5) of 6040 nM.
For `CC(=O)OC[C@H]1O[C@@](C#N)(c2ccc3c(N)ncnn23)[C@@H]2OC(=O)CCCC(=O)O[C@@H]21` [Compound C55, ((7aR,8R,10R,10aR)-10-(4-aminopyrrolo[2,1-f][1,2,4]triazin-7-yl)-10-cyano-2,6-dioxooctahydro-2H-furo[3,4-b][1,4]dioxonin-8-yl)methyl acetate], the “Human Plasma T1/2” value (2 μM) was 180 s, the CC50 (in vitro [1]) was greater than 50 µM and the EC50 (SARS-CoV2-NLuc) was 3300 nM. For the same molecule, the EC50 (RSV-Luc5) was 2070 nM.
For `CCC(=O)OC[C@H]1O[C@@](C#N)(c2ccc3c(N)ncnn23)[C@@H]2OC(=O)CCCC(=O)O[C@@H]21` [Compound C56, ((7aR,8R,10R,10aR)-10-(4-aminopyrrolo[2,1-f][1,2,4]triazin-7-yl)-10-cyano-2,6-dioxooctahydro-2H-furo[3,4-b][1,4]dioxonin-8-yl)methyl propionate], the “Human Plasma T1/2” value (2 μM) was 180 s, the CC50 (in vitro [1]) was greater than 50 µM and the EC50 (SARS-CoV2-NLuc) was 4580 nM. The EC50 (RSV-Luc5) was 2300 nM.
